Laboratory results published in the supplement of paper PMC10307832.

Columns and labels:
Experiment in all cases: relative viability (nuclei count vs DMSO), 5 days (fraction); higher = more cells survive
NCI-H1755 = tested on: NCI-H1755
Method in brief: (§1)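 Each reported value is a median over duplicate plates. It expresses relative viability: treated-well nuclei count divided by vehicle-well nuclei count. Lung cancer cell lines in 1536-well plates were dosed by pin tool a day after seeding, alone with one drug or with a fixed anchor-drug dose plus five library-drug doses (not always all listed) in √10 steps, and nuclei were counted after 5 days.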

NCI-H1915 = tested on: NCI-H1915
Method in brief: as §1

NCI-H2023 = tested on: NCI-H2023
Method in brief: as §1

NCI-H2126 = tested on: NCI-H2126
Method in brief: as §1

NCI-H2170 = tested on: NCI-H2170
Method in brief: as §1

NCI-H3122 = tested on: NCI-H3122
Method in brief: as §1

NCI-H358 = tested on: NCI-H358
Method in brief: as §1

NCI-H650 = tested on: NCI-H650
Method in brief: as §1

NCI-H727 = tested on: NCI-H727
Method in brief: as §1

SW 1573 = tested on: SW 1573
Method in brief: as §1

SW 900 = tested on: SW 900
Method in brief: as §1

**Q.** Which results are given for `Cc1csc(=NC2CCCCC2)n1/N=C/c1ccc(O)c(O)c1O` [MIM1] + O=C(c1cc(Cc2n[nH]c(=O)c3ccccc23)ccc1F)N1CCN(C(=O)C2CC2)CC1 [Olaparib] (partner 8 µM)?
**A.** relative viability (NCI-H1755; first compound 6.325 µM): 0.699; relative viability (NCI-H1755; first compound 20 µM): 0.262; relative viability (NCI-H1915; first compound 0.2 µM): 0.255; relative viability (NCI-H1915; first compound 0.6325 µM): 0.248; relative viability (NCI-H1915; first compound 2 µM): 0.236; relative viability (NCI-H1915; first compound 6.325 µM): 0.203; relative viability (NCI-H1915; first compound 20 µM): 0.133; relative viability (NCI-H2023; first compound 0.2 µM): 0.501; relative viability (NCI-H2023; first compound 0.6325 µM): 0.496; relative viability (NCI-H2023; first compound 2 µM): 0.43; relative viability (NCI-H2023; first compound 6.325 µM): 0.255; relative viability (NCI-H2023; first compound 20 µM): 0.0641; relative viability (NCI-H2126; first compound 0.2 µM): 0.936; relative viability (NCI-H2126; first compound 0.6325 µM): 0.879; relative viability (NCI-H2126; first compound 2 µM): 0.916; relative viability (NCI-H2126; first compound 6.325 µM): 0.849; relative viability (NCI-H2126; first compound 20 µM): 0.401; relative viability (NCI-H2170; first compound 0.2 µM): 0.539; relative viability (NCI-H2170; first compound 0.6325 µM): 0.533; relative viability (NCI-H2170; first compound 2 µM): 0.528; relative viability (NCI-H2170; first compound 6.325 µM): 0.269; relative viability (NCI-H2170; first compound 20 µM): 0.141; relative viability (NCI-H3122; first compound 0.2 µM): 0.626; relative viability (NCI-H3122; first compound 0.6325 µM): 0.643; relative viability (NCI-H3122; first compound 2 µM): 0.618; relative viability (NCI-H3122; first compound 6.325 µM): 0.325; relative viability (NCI-H3122; first compound 20 µM): 0.113; relative viability (NCI-H358; first compound 0.2 µM): 0.558; relative viability (NCI-H358; first compound 0.6325 µM): 0.533; relative viability (NCI-H358; first compound 2 µM): 0.516; relative viability (NCI-H358; first compound 6.325 µM): 0.379; relative viability (NCI-H358; first compound 20 µM): 0.123; relative viability (NCI-H650; first compound 0.2 µM): 0.421; relative viability (NCI-H650; first compound 0.6325 µM): 0.364; relative viability (NCI-H650; first compound 2 µM): 0.381; relative viability (NCI-H650; first compound 6.325 µM): 0.357; relative viability (NCI-H650; first compound 20 µM): 0.127; relative viability (NCI-H727; first compound 0.2 µM): 0.7; relative viability (NCI-H727; first compound 0.6325 µM): 0.721; relative viability (NCI-H727; first compound 2 µM): 0.526; relative viability (NCI-H727; first compound 6.325 µM): 0.748; relative viability (NCI-H727; first compound 20 µM): 0.523; relative viability (SW 1573; first compound 0.2 µM): 0.515; relative viability (SW 1573; first compound 0.6325 µM): 0.471; relative viability (SW 1573; first compound 2 µM): 0.608; relative viability (SW 1573; first compound 6.325 µM): 0.321; relative viability (SW 1573; first compound 20 µM): 0.1; relative viability (SW 900; first compound 0.2 µM): 0.968; relative viability (SW 900; first compound 0.6325 µM): 0.819; relative viability (SW 900; first compound 2 µM): 0.852; relative viability (SW 900; first compound 6.325 µM): 0.209; relative viability (SW 900; first compound 20 µM): 0.181
